# From paper PMC6261661 (ACS chemical neuroscience, 2018)
# Square brackets hold non-standard residues; d marks the D form. Peptide text beside a SMILES is read from it. * marks the point of attachment. Bip = N[C@@H](Cc1ccc(-c2ccccc2)cc1)C(=O)O; dBip = N[C@H](Cc1ccc(-c2ccccc2)cc1)C(=O)O; dPhe(4-I) = N[C@H](Cc1ccc(I)cc1)C(=O)O; 1Nal = N[C@@H](Cc1cccc2ccccc12)C(=O)O; 2Nal = N[C@@H](Cc1ccc2ccccc2c1)C(=O)O; d1Nal = N[C@H](Cc1cccc2ccccc12)C(=O)O; d2Nal = N[C@H](Cc1ccc2ccccc2c1)C(=O)O; Bta = N[C@@H](Cc1csc2ccccc12)C(=O)O; 3Pal = N[C@@H](Cc1cccnc1)C(=O)O; 4Pal = N[C@@H](Cc1ccncc1)C(=O)O; 2Thi = N[C@@H](Cc1cccs1)C(=O)O; Octanoyl = CCCCCCCC(=O)*
# Experiments:
# Assay type in all cases: cell-based
# mMC4R [1] = biological target: T1, mMC4R (Mus musculus, UniProt P56450); assay: Antagonist Schild analysis against agonist MTII at mMC4R; details: for mMC4R pharmacology class printed in Fold Diff. column (Ant, SA): Ant = antagonist, SA = some stimulatory activity at 100 µM
# mMC5R = mMC5R (Mus musculus, UniProt P41149); assay: CRE/β-galactosidase reporter gene bioassay, agonist activity at mMC5R; details: for mMC5R pharmacology in words: comparisons are to reference peptide 1; for mMC5R Fold Diff.: fold difference in EC50 vs peptide 1, negative prefix = more potent than 1; for mMC5R fold less potent than peptide 1: less potent than 1
# mMC1R = mMC1R (Mus musculus, UniProt Q01727); assay: CRE/β-galactosidase reporter gene bioassay, agonist activity at mMC1R; details: for mMC1R pharmacology in words: comparisons are to reference peptide 1; for EC50: mMC1R EC50, agonist, HEK-293 cells stably expressing receptor, ±SEM; for mMC1R Fold Diff: fold difference in EC50 vs peptide 1, negative prefix = more potent than 1; for mMC1R fold decrease in potency compared to compound 1: less potent than 1; for mMC1R fold difference in EC50, more potent than reference peptide 1: more potent agonist than 1
# mMC3R [2] = biological target: T2, mMC3R (Mus musculus, UniProt P33033); assay: Antagonist Schild analysis against agonist MTII at mMC3R; details: for mMC3R pharmacology class printed in Fold Diff column (Ant, SA): Ant = antagonist, SA = some stimulatory activity at 100 µM
# mMC3R [3] = biological target: T2, mMC3R; assay: cell-based; details: for mMC3R Fold Diff: fold difference in EC50 vs peptide 1, negative prefix = more potent than 1
# mMC4R [4] = biological target: T1, mMC4R; assay: CRE/β-galactosidase reporter gene bioassay, agonist activity at mMC4R; details: for mMC4R Fold Diff.: fold difference in EC50 vs peptide 1, negative prefix = more potent than 1
# [5] = ligand at 100 μM, compared to maximal response generated by α-MSH
# T1 sequence (P56450 whole entry): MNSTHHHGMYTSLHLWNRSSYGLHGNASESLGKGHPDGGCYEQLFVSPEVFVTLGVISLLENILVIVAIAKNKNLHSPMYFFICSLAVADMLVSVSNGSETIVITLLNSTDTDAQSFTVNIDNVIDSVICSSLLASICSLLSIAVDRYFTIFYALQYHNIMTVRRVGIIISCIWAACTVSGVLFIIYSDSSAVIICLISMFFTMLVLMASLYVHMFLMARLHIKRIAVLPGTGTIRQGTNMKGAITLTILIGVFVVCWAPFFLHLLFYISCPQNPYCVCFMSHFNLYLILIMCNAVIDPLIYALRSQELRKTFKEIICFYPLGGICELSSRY
# mMC5R, sequence (P41149 whole entry): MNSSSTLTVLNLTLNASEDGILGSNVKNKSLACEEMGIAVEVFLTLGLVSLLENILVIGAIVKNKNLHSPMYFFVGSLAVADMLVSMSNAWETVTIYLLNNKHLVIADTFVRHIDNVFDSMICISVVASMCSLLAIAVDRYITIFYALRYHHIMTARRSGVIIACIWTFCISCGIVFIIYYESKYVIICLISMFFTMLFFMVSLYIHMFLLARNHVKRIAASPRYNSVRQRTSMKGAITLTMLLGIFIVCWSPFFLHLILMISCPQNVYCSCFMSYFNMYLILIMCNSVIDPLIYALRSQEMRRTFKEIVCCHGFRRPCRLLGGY
# T2 sequence (P33033 whole entry): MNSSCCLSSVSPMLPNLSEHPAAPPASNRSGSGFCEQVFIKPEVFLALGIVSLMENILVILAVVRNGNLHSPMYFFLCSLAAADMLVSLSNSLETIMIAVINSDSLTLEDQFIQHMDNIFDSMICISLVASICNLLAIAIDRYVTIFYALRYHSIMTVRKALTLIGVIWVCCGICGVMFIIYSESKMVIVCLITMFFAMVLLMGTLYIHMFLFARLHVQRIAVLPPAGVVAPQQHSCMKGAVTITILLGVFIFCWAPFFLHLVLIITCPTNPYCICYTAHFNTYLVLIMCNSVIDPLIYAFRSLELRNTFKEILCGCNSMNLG
# mMC1R, sequence (Q01727 whole entry): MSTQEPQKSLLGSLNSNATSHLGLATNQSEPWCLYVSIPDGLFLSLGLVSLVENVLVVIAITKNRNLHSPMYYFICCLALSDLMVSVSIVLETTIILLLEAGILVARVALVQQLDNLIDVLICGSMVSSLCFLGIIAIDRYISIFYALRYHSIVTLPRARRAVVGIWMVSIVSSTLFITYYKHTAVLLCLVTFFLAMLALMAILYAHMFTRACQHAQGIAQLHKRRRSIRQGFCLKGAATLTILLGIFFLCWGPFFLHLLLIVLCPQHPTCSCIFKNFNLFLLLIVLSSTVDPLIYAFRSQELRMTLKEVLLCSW
EC50 (mMC5R),mMC5R Fold Diff. (mMC5R),EC50 (mMC1R),mMC1R Fold Diff (mMC1R),EC50 (mMC3R [3]),EC50 (mMC4R [4]),mMC4R Fold Diff. (mMC4R [4]),Compound,mMC5R pharmacology in words (mMC5R),other results
31 ± 3 nM,6,180 ± 20 nM,–,–,–,–,"CCCCCCCC(=O)N[C@@H](Cc1c[nH]cn1)C(=O)N[C@H](Cc1ccccc1)C(=O)N[C@@H](CCCNC(=N)N)C(=O)N[C@H](Cc1ccc(-c2ccccc2)cc1)C(N)=O [Peptide 8, Octanoyl-His-DPhe-Arg-DBip-NH2] (Octanoyl-H[dF]R[dBip]-NH2)",decreased potencies,"Kb (mMC4R [1]): 50.1 nM; mMC4R pharmacology class printed in Fold Diff. column (Ant, SA) (mMC4R [1]): Ant; mMC1R pharmacology in words (mMC1R): equipotent; Kb (mMC3R [2]): 316 nM; mMC3R pharmacology class printed in Fold Diff column (Ant, SA) (mMC3R [2]): Ant"
3900 ± 2200 nM,725,9700 ± 4700 nM,70,> 100000 nM,12000 ± 4000 nM,870,"CC(=O)N[C@@H](Cc1c[nH]c2ccccc12)C(=O)N[C@H](Cc1cccc2ccccc12)C(=O)N[C@@H](CCCNC(=N)N)C(=O)N[C@@H](Cc1c[nH]c2ccccc12)C(N)=O [Peptide 19, Ac-Trp-DNal(1’)-Arg-Trp-NH2] (Ac-W[d1Nal]RW-NH2)",–,–
76 ± 18 nM,14,2600 ± 1300 nM,19,12000 ± 6000 nM,450 ± 190 nM,33,"CC(=O)N[C@@H](Cc1cccs1)C(=O)N[C@H](Cc1ccccc1)C(=O)N[C@@H](CCCNC(=N)N)C(=O)N[C@@H](Cc1ccc2ccccc2c1)C(N)=O [Peptide 28, Ac-2Thi-DPhe-Arg-Nal(2’)-NH2] (Ac-[2Thi][dF]R[2Nal]-NH2)",–,"mMC5R fold less potent than peptide 1 (mMC5R): 14 fold; fold more potent at the mMC5R compared to the mMC1R (mMC5R; selectivity, agonist EC50): 35 fold; fold more potent at the mMC5R compared to the mMC3R (mMC5R; selectivity, agonist EC50): 163 fold; fold more potent at the mMC5R compared to the mMC4R (mMC5R; selectivity, agonist EC50): 6 fold; mMC3R Fold Diff (mMC3R [3]): 22"
440 ± 70 nM,83,5200 ± 1700 nM,37,–,–,–,"CC(=O)N[C@@H](Cc1ccc(-c2ccccc2)cc1)C(=O)N[C@H](Cc1ccc(I)cc1)C(=O)N[C@@H](CCCNC(=N)N)C(=O)N[C@@H](Cc1c[nH]c2ccccc12)C(N)=O [Peptide 17, Ac-Bip-(pI)DPhe-Arg-Trp-NH2] (Ac-[Bip][dPhe(4-I)]RW-NH2)",–,"Kb (mMC4R [1]): 79.4 nM; mMC4R pharmacology class printed in Fold Diff. column (Ant, SA) (mMC4R [1]): Ant; Kb (mMC3R [2]): 631 nM; mMC3R pharmacology class printed in Fold Diff column (Ant, SA) (mMC3R [2]): Ant"
5800 ± 600 nM,1094,23000 ± 7000 nM,167,> 100000 nM,4300 ± 800 nM,310,"CC(=O)N[C@@H](Cc1c[nH]c2ccccc12)C(=O)N[C@H](Cc1ccccc1)C(=O)N[C@@H](CCCNC(=N)N)C(=O)N[C@H](Cc1ccc2ccccc2c1)C(N)=O [Peptide 26, Ac-Trp-DPhe-Arg-DNal(2’)-NH2] (Ac-W[dF]R[d2Nal]-NH2)",–,mMC5R fold less potent than peptide 1 (mMC5R): approximately 1000 fold; mMC1R fold decrease in potency compared to compound 1 (mMC1R): > 160 fold
500 ± 70 nM,94,10000 ± 4900 nM,71,> 100000 nM,5400 ± 1600 nM,395,"CC(=O)N[C@@H](Cc1ccccc1)C(=O)N[C@H](Cc1ccc(-c2ccccc2)cc1)C(=O)N[C@@H](CCCNC(=N)N)C(=O)N[C@@H](Cc1c[nH]c2ccccc12)C(N)=O [Peptide 20, Ac-Phe-DBip-Arg-Trp-NH2] (Ac-F[dBip]RW-NH2)",–,–
240 ± 50 nM,45,1900 ± 600 nM,14,> 100000 nM,110 ± 20 nM,8,"CC(=O)N[C@@H](Cc1cccnc1)C(=O)N[C@H](Cc1ccccc1)C(=O)N[C@@H](CCCNC(=N)N)C(=O)N[C@@H](Cc1ccc2ccccc2c1)C(N)=O [Peptide 23, Ac-3PAL-DPhe-Arg-Nal(2’)-NH2] (Ac-[3Pal][dF]R[2Nal]-NH2)",–,mMC1R fold decrease in potency compared to compound 1 (mMC1R): 14 fold; mMC4R fold less potent than compound 1 (mMC4R [4]; less potent than 1): 8 fold
62 ± 4 nM,–,45 ± 12 nM,–,–,–,–,"CCCCCCCC(=O)N[C@@H](Cc1cnc[nH]1)C(=O)N[C@H](Cc1ccccc1)C(=O)N[C@@H](CCCNC(=N)N)C(=O)N[C@@H](Cc1ccc(-c2ccccc2)cc1)C(N)=O [Peptide 2, Octanoyl-His-DPhe-Arg-Bip-NH2] (Octanoyl-H[dF]R[Bip]-NH2)",–,Kb (mMC4R [1]): 100 nM
3000 ± 1200 nM,566,3300 ± 1200 nM,23,–,1100 ± 300 nM,77,"CC(=O)N[C@@H](Cc1c[nH]c2ccccc12)C(=O)N[C@H](Cc1ccccc1)C(=O)N[C@@H](CCCNC(=N)N)C(=O)N[C@@H](Cc1cccc2ccccc12)C(N)=O [Peptide 24, Ac-Trp-DPhe-Arg-Nal(1’)-NH2] (Ac-W[dF]R[1Nal]-NH2)",–,mMC3R relative percentage of stimulation at 100 μM (mMC3R [3]; 100000.0): 50%

# Second part, the compound before the results:
Compound,EC50 (mMC5R),mMC5R Fold Diff. (mMC5R),EC50 (mMC1R),mMC1R Fold Diff (mMC1R),EC50 (mMC3R [3]),EC50 (mMC4R [4]),mMC4R Fold Diff. (mMC4R [4]),mMC5R pharmacology in words (mMC5R),other results
"CC(=O)N[C@@H](Cc1cccs1)C(=O)N[C@H](Cc1ccccc1)C(=O)N[C@@H](CCCNC(=N)N)C(=O)N[C@@H](Cc1csc2ccccc12)C(N)=O [Peptide 27, Ac-2Thi-DPhe-Arg-3Bal-NH2] (Ac-[2Thi][dF]R[Bta]-NH2)",970 ± 290 nM,183,6400 ± 1600 nM,45,> 100000 nM,1300 ± 300 nM,91,–,–
"CCCCCCCC(=O)N[C@H](Cc1c[nH]cn1)C(=O)N[C@H](Cc1ccccc1)C(=O)N[C@@H](CCCNC(=N)N)C(=O)N[C@@H](Cc1c[nH]c2ccccc12)C(N)=O [Peptide 9, Octanoyl-DHis-DPhe-Arg-Trp-NH2]",290 ± 40 nM,55,230 ± 30 nM,–,4200 ± 800 nM,340 ± 30 nM,25,decreased potencies,mMC5R fold less potent than peptide 1 (mMC5R): 55 fold; mMC3R Fold Diff (mMC3R [3]): 7
"CC(=O)N[C@@H](Cc1c[nH]cn1)C(=O)N[C@H](Cc1ccc(-c2ccccc2)cc1)C(=O)N[C@@H](CCCNC(=N)N)C(=O)N[C@@H](Cc1ccc2ccccc2c1)C(N)=O [Peptide 36, Ac-His-DBip-Arg-Nal(2’)-NH2] (Ac-H[dBip]R[2Nal]-NH2)",20.7 ± 4.1 nM,4,17 ± 5.4 nM,−8,–,52 ± 18 nM,4,less potent,"mMC1R pharmacology in words (mMC1R): more potent; mMC3R relative percentage of stimulation at 100 μM (mMC3R [3]; 100000.0): 50%; Kb (mMC3R [2]): 25.1 nM; mMC3R pharmacology class printed in Fold Diff column (Ant, SA) (mMC3R [2]): SA Ant"
"CCCCCCCC(=O)N[C@@H](Cc1c[nH]cn1)C(=O)N[C@H](Cc1ccccc1)C(=O)N[C@@H](CCCNC(=N)N)C(=O)N[C@@H](Cc1ccc(-c2ccccc2)cc1)C(N)=O [Peptide 2, Octanoyl-His-DPhe-Arg-Bip-NH2] (Octanoyl-H[dF]R[Bip]-NH2)",–,12,–,–,–,–,–,decreased potencies,"mMC4R pharmacology class printed in Fold Diff. column (Ant, SA) (mMC4R [1]): Ant; mMC1R pharmacology in words (mMC1R): equipotent; mMC3R relative percentage of stimulation at 100 μM (mMC3R [3]; 100000.0): 50%−65%; mMC4R relative percentage of stimulation at 100 μM (mMC4R [4]; [5]): 40%"
"CCCCCCCC(=O)N[C@@H](Cc1c[nH]cn1)C(=O)N[C@H](Cc1ccc(-c2ccccc2)cc1)C(=O)N[C@@H](CCCNC(=N)N)C(=O)N[C@@H](Cc1c[nH]c2ccccc12)C(N)=O [Peptide 7, Octanoyl-His-DBip-Arg-Trp-NH2]",15 ± 4 nM,–,3.7 ± 0.9 nM,−40,–,500 ± 200 nM,36,equipotent,"mMC1R fold difference in EC50, more potent than reference peptide 1 (mMC1R): 40 fold; mMC3R relative percentage of stimulation at 100 μM (mMC3R [3]; 100000.0): 50%−65%; mMC3R relative percentage of stimulation at 100 μM (mMC3R [3]; [5]): 60%; Kb (mMC3R [2]): 63.1 nM; mMC3R pharmacology class printed in Fold Diff column (Ant, SA) (mMC3R [2]): Ant"
"CC(=O)N[C@@H](Cc1c[nH]cn1)C(=O)N[C@H](Cc1ccc(I)cc1)C(=O)N[C@@H](CCCNC(=N)N)C(=O)N[C@@H](Cc1ccccc1)C(N)=O [Peptide 32, Ac-His-(pI)DPhe-Arg-Phe-NH2] (Ac-H[dPhe(4-I)]RF-NH2)",18.4 ± 5.7 nM,–,91 ± 13 nM,–,–,80 ± 7 nM,6,equipotent agonists,mMC3R relative percentage of stimulation at 100 μM (mMC3R [3]; [5]): 60% at 100 μM
"CC(=O)N[C@@H](Cc1ccncc1)C(=O)N[C@H](Cc1ccc(-c2ccccc2)cc1)C(=O)N[C@@H](CCCNC(=N)N)C(=O)N[C@@H](Cc1c[nH]c2ccccc12)C(N)=O [Peptide 22, Ac-4PAL-DBip-Arg-Trp-NH2] (Ac-[4Pal][dBip]RW-NH2)",1300 ± 300 nM,235,1900 ± 720 nM,14,–,1300 ± 200 nM,92,–,"mMC3R relative percentage of stimulation at 100 μM (mMC3R [3]; 100000.0): 45%; Kb (mMC3R [2]): 316 nM; mMC3R pharmacology class printed in Fold Diff column (Ant, SA) (mMC3R [2]): SA Ant"
"CCCCCCCC(=O)N[C@@H](Cc1c[nH]cn1)C(=O)N[C@H](Cc1ccccc1)C(=O)N[C@@H](CCCNC(=N)N)C(=O)N[C@@H](Cc1csc2ccccc12)C(N)=O [Peptide 3, Octanoyl-His-DPhe-Arg-3Bal-NH2] (Octanoyl-H[dF]R[Bta]-NH2)",2.4 ± 0.5 nM,–,14.6 ± 3.9 nM,−10,52 ± 7 nM,13 ± 3 nM,–,equipotent,"mMC1R fold difference in EC50, more potent than reference peptide 1 (mMC1R): 10 fold; mMC3R Fold Diff (mMC3R [3]): −11; mMC3R fold difference, more potent agonist than Ac-His-DPhe-Arg-Trp-NH2 (mMC3R [3]; more potent than 1): 11 fold"
